Columns and labels:
U87 glioblastoma tumors = experiment: TUNEL assay of xenograft tumor tissue; conditions: U87MG xenograft, 1 mg/kg BZM and 7.5 mg/kg DMC individually or in combination, 50 h
[1] = test system: U87MG glioblastoma cell line; experiment: MTT assay, U87MG; assay type: cell-based; conditions: Homo sapiens, U-87 MG, 48 h, read-out: IC50 (50% inhibition of cell growth)
Method: (§1) For comparison purposes to the known anti-multiple myeloma effects of bortezomib, the RPMI/8226 multiple myeloma cell line was included in (A).
(§2) 3-(4,5-Dimethylthiazol-2-yl)-2,5-diphenyltetrazolium bromide (MTT) assays were performed in 96-well plates with the use of 3.0×10^3 to 8.0×10^3 cells per well as described in detail elsewhere (19).

[2] = test system: CHOP, GRP78, caspase 4 in U251 glioblastoma cells; experiment: Western blot of ER stress indicators in U251 cells; assay type: cell-based, human; conditions: U251, increasing concentrations, 24 hours
Method: U251 glioblastoma cells were cultured in the presence of 1 μM thapsigargin (Tg) or 60 μM DMC for various times, as indicated. Total cell lysates were prepared and analyzed by Western blot with specific antibodies to the ER stress proteins GRP78, CHOP, and caspase 4 (Casp 4). Actin was used as a loading control.
Shown are (A) time kinetics at 50 μM of each drug, and (B) concentration dependence after 15 hours of incubation.
Shown are (FIG. 7A) time kinetics at 50 μM of each drug, and (FIG. 7B), concentration dependence after 15 hours of incubation.
U251 glioblastoma cells were cultured for 24 hours in the presence of increasing concentrations of (A) bortezomib (BZM) or (B) DMC. Total cell lysates were analyzed by Western blot with specific antibodies to ubiquitin, GRP78, CHOP, and caspase 4. Actin was used as a loading control.
Total cell lysates were prepared by lysis of cells with radioimmunoprecipitation assay buffer (28), and protein concentrations were determined using the bicinchoninic acid protein assay reagent (Pierce, Rockford, Ill.). For Western blot analysis, 50 Ag of each sample were processed as described (29). The primary antibodies were purchased from Cell Signaling Technologies (Beverly, Mass.), Cayman Chemical (Ann Arbor, Mich.), or Santa Cruz Biotechnology, Inc. (Santa Cruz, Calif.) and used according to the manufacturer's recommendations. The secondary antibodies were coupled to horseradish peroxidase and detected by chemiluminescence using the SuperSignal West substrate from Pierce. All immunoblots were repeated at least once to confirm the results.
(§3) Total cell lysates were prepared and analyzed by Western blot analysis as described earlier (19). Immunohistochemical analysis of protein expression in tumor tissues was performed with the use of the Vectastain avidin-biotin complex method kit (Vector Laboratories) as described previously (32). The primary antibodies were purchased from Cell Signaling Technology or Santa Cruz Biotechnology, Inc. and used according to the manufacturers' recommendations. All immunoblots and stainings were repeated at least once to confirm the results.

LN229 cells = experiment: Colony formation assay, LN229; assay type: cell-based, human; conditions: LN229: 5 nM BZM, 60 μM CXB, 40 μM DMC, alone or combined; 48 hours, colonies two weeks thereafter
Method: Representative sections are shown. (B) Quantitative analysis of combination drug effects. […] Cell viability was determined by trypan blue exclusion assay.
The different small interfering RNAs (siRNA) were synthesized at the microchemical core laboratory of the University of Southern California/Norris Comprehensive Cancer Center; their sequences are described in ref. 32. Transfections of cells with these siRNAs and subsequent analysis of cell survival by colony formation assay have been described in detail elsewhere (32).

[3] = test system: LN229 glioblastoma cell line; experiment: MTT assay, LN229; assay type: cell-based, human; conditions: Homo sapiens, LN-229, LN229, 48 h, read-out: IC50 (50% inhibition of cell growth)
Method: as §1, §2

[4] = test system: RPMI/8226 multiple myeloma cell line; experiment: MTT assay, RPMI/8226; assay type: cell-based; conditions: RPMI/8226, 48 h, not more sensitive than the glioblastoma cell lines
Method: as §1, §2

[5] = test system: T98G glioblastoma cell line; experiment: MTT assay, T98G; assay type: cell-based; conditions: Homo sapiens, 48 h, read-out: IC50 (50% inhibition of cell growth)
Method: as §1, §2

U251 glioblastoma cells = experiment: MTT assay, U251; assay type: cell-based, human; conditions: Homo sapiens, U-251; U251, 48 h, MTT; read-out: IC50 (50% inhibition of cell growth)
Method: U251 glioblastoma cells were treated with different drugs, and various parameters of cell growth and cell death were comparatively analyzed. As controls, cells remained either non-treated (Co) or were treated with the solvent DMSO alone. (FIG. 8A) Cells were treated with 30 or 50 μM DMC for 48 hours and the effects on cell growth/survival and on cell death were determined by various assays. […] Below the three panels, the expression levels of the ER stress indicators CHOP, GRP78, and caspase 4 at the end of the 48 hour drug treatment is shown, as determined by Western blot analysis with specific antibodies (actin served as a loading control. (FIG. 8B) Cells were treated with various concentrations of different drugs for 48 hours, as indicated, and cell death was measured with the cell death ELISA kit. (FIG. 8C) Cells were treated with DMC or various coxibs and traditional NSAIDs for 48 hours, as indicated, and cell growth and survival was determined with the conventional MTT assay (control, non-treated cells were set at 100%). MTT assays were performed in 96-well plates with the use of 3.0-8.0×10^3 cells per well as described in detail elsewhere (34). In parallel, the expression levels of CHOP and GRP78 protein were determined by Western blot analysis. […]
as §2

[6] = test system: CHOP protein in U87 glioblastoma tumor tissue; experiment: Immunohistochemical staining for CHOP in xenograft tumor tissue; assay type: in vivo, nude mice; conditions: U87MG xenograft, 1 mg/kg BZM and 7.5 mg/kg DMC individually or in combination, 50 h
From the text: In all cases, representative sections are shown.
Immunohistochemical analysis of protein expression in tumor tissues was done with the use of the Vectastain avidin-biotin complex method kit (Vector Laboratories, Burlingame, Calif.) according to the manufacturer's instructions. This procedure uses biotinylated secondary antibodies and a preformed avidin: biotinylated enzyme complex that has been termed the avidin-biotin complex method technique. As the primary antibody, we used anti-CHOP antibody (Santa Cruz Biotechnology) diluted 1:100 in 2% normal goat blocking serum.

[7] = test system: polyubiquitinated proteins in U251 cells; experiment: Western blot of polyubiquitinated proteins, U251; assay type: cell-based, human; conditions: U251, increasing concentrations, 24 hours
Method: Total cell lysates were analyzed by Western blot with specific antibodies to ubiquitin, GRP78, CHOP, and caspase 4. Actin was used as a loading control. […] Note that in the caspase 4 blots several non-specific background bands were observed (consistent with similar observations in the literature); the specific bands were identified with the use of various controls (not shown) and comparison to the literature.
as §3

CC(C)C[C@H](NC(=O)[C@H](Cc1ccccc1)NC(=O)c1cnccn1)B(O)O [bortezomib]
TUNEL staining of tumor tissue (U87 glioblastoma tumors): increased TUNEL staining | IC50 [1]: ~10 nM | expression of GRP78 and CHOP [2]: increased expression of GRP78 and CHOP | reduction of colony number (LN229 cells): ~50% | IC50 [3]: < 5 nM | sensitivity of RPMI/8226 cells [4]: high sensitivity | IC50 [5]: ~10 nM | IC50 (U251 glioblastoma cells): ~10 nM | CHOP expression in tumor tissue [6]: larger fraction of CHOP-positive cells | accumulation of polyubiquitinated proteins [7]: highly elevated levels of polyubiquitinated proteins
